Test results: the supplement of paper PMC10307832

Tests used:
Assay in all cases: relative viability (nuclei count vs DMSO), 5 days (fraction); higher = more cells survive
[1] = compound: COc1cc(Nc2c(C#N)cnc3cc(OCCCN4CCN(C)CC4)c(OC)cc23)c(Cl)cc1Cl [Bosutinib] + CC(=O)c1c(C)c2cnc(Nc3ccc(N4CCNCC4)cn3)nc2n(C2CCCC2)c1=O [Palbociclib] (partner 0.5 µM)
In short: (§1)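 Relative viability divides the nuclei count in treated wells by that in vehicle wells. Lung cancer cell lines were seeded in 1536-well plates, dosed by pin tool the next day, and fixed and stained after 5 days in one step with final 0.05% Triton X-100, 1% formaldehyde and 1 ug/ml Hoechst. Dosing was a single drug or a fixed anchor-drug dose plus five library-drug doses (not always all listed) in √10 steps, and values are medians of duplicate plates imaged at 4×.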

[2] = compound: COc1cc(Nc2c(C#N)cnc3cc(OCCCN4CCN(C)CC4)c(OC)cc23)c(Cl)cc1Cl [Bosutinib] + CS(=O)(=O)CCNCc1ccc(-c2ccc3ncnc(Nc4ccc(OCc5cccc(F)c5)c(Cl)c4)c3c2)o1 [Lapatinib] (partner 2 µM)
In short: as §1

[3] = compound: COc1cc(Nc2c(C#N)cnc3cc(OCCCN4CCN(C)CC4)c(OC)cc23)c(Cl)cc1Cl [Bosutinib] + N=C(N)NC(=N)NCCc1ccccc1 [Phenformin] (partner 250 µM)
In short: as §1

[4] = compound: COc1cc(Nc2c(C#N)cnc3cc(OCCCN4CCN(C)CC4)c(OC)cc23)c(Cl)cc1Cl [Bosutinib] + Nc1nc2[nH]cc(CCc3ccc(C(=O)N[C@@H](CCC(=O)O)C(=O)O)cc3)c2c(=O)[nH]1 [Pemetrexed] (partner 0.2 µM)
In short: as §1

[5] = compound: COc1cc(Nc2c(C#N)cnc3cc(OCCCN4CCN(C)CC4)c(OC)cc23)c(Cl)cc1Cl [Bosutinib] + O=C(c1cc(Cc2n[nH]c(=O)c3ccccc23)ccc1F)N1CCN(C(=O)C2CC2)CC1 [Olaparib] (partner 8 µM)
In short: as §1

Cell Line	relative viability ([1]; first compound 0.01 µM)	relative viability ([1]; first compound 0.03162 µM)	relative viability ([1]; first compound 0.1 µM)	relative viability ([1]; first compound 1 µM)	relative viability ([2]; first compound 0.01 µM)	relative viability ([2]; first compound 0.03162 µM)	relative viability ([2]; first compound 0.1 µM)	relative viability ([2]; first compound 1 µM)	relative viability ([3]; first compound 0.01 µM)	relative viability ([3]; first compound 0.03162 µM)	relative viability ([3]; first compound 0.1 µM)	relative viability ([3]; first compound 1 µM)	relative viability ([4]; first compound 0.01 µM)	relative viability ([4]; first compound 0.03162 µM)	relative viability ([4]; first compound 0.1 µM)	relative viability ([4]; first compound 1 µM)	relative viability ([5]; first compound 0.01 µM)	relative viability ([5]; first compound 0.03162 µM)	relative viability ([5]; first compound 0.1 µM)	relative viability ([5]; first compound 1 µM)
RERF-LC-KJ	0.956	1.06	1.06	1.08	0.836	0.832	0.878	0.905	0.407	0.427	0.42	0.387	0.504	0.495	0.492	0.478	0.883	0.867	0.958	0.989
SK-LU-1	0.399	0.436	0.397	0.294	0.808	0.919	1	0.586	0.538	0.473	0.507	0.303	1.02	0.899	0.982	0.693	0.474	0.686	0.5	0.383
SK-MES-1	0.329	0.327	0.326	0.295	0.435	0.512	0.555	0.505	0.66	0.686	0.632	0.502	0.94	1.03	0.938	0.556	0.671	0.896	0.798	0.458
SW 1573	0.418	0.419	0.365	0.4	1.32	1.08	1.14	0.935	0.411	0.357	0.358	0.27	0.796	0.791	0.911	0.838	0.533	0.457	0.528	0.484
UMC-11	0.366	0.344	0.33	0.279	1.1	1.03	1.03	0.821	0.321	0.312	0.312	0.247	0.795	0.755	0.807	0.707	0.64	0.672	0.248	0.686
